{"source": "patent US11459324B2", "about": "“O-glycoprotein-2-acetamido-2-deoxy-3-D-glycopyranosidase inhibitors” (BIOGEN MA INC., priority 2018, dated 2022)", "data": [{"molecular_target": "T1, Recombinant full length human OGA enzyme (Homo sapiens, UniProt O60502)", "T1 construct": "Recombinant full length human OGA enzyme was purchased from Origene; purchased Origene", "T1 sequence (O60502 1-916)": "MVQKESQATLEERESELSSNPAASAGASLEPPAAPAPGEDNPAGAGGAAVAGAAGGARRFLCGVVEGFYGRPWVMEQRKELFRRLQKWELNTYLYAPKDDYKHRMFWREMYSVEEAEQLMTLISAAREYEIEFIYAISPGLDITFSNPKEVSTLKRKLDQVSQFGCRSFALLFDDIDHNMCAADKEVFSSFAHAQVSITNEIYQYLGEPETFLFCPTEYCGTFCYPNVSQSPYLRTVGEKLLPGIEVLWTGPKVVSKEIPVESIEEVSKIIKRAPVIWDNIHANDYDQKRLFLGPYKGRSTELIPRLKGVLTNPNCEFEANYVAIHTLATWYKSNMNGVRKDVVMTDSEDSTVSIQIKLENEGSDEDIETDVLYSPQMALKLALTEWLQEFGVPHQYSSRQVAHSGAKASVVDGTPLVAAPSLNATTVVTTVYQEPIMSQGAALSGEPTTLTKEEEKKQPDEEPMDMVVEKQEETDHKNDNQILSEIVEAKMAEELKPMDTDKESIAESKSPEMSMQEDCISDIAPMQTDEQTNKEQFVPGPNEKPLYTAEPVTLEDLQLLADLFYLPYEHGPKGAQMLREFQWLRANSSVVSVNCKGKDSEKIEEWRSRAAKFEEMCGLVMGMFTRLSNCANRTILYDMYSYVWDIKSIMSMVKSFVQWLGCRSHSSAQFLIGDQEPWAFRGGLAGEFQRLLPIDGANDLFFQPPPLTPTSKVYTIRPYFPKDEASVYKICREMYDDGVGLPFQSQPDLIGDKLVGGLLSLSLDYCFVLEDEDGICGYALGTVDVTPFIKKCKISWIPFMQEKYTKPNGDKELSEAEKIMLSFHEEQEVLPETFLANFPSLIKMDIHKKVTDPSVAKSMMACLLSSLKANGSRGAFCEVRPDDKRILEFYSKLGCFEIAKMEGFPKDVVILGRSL", "assay": "OGA Enzyme Inhibition Biochemical Assay", "conditions": "1 nM OGA, 100 μM 4-MUGlcNAc (Km), pH 6.4, 90 minutes at room temperature, 10-point dose-response from 20 μM", "description": "OGA Enzyme Inhibition Biochemical Assay\nRecombinant full length human OGA enzyme was purchased from Origene. 4-MUGlCNAc substrate was purchased from Sigma. All other reagents were purchased from Sigma or Fisher. Assay buffer consists of the McIlvaine buffer system, pH 6.4 (0.2M Na2HPO4 mixed with 0.1M citric acid) and 0.01% BSA. Reactions consist of 1 nM OGA, 100 μM 4-MUGlcNAc (Km), and compound in a final volume of 10 μl. Reactions were incubated for 90 minutes at room temperature and quenched with 40 μl of 3M glycine, pH 10 and read on a Perkin Elmer Envision plate reader (Ex: 355 nm/Em: 460 nm). Compounds were tested with a 10-point dose-response starting from 20 μM with a 4-fold dilution. Data was fit using GraphPad Prism using a 4-parameter fit with variable slope.", "units": {"IC50": "nM"}, "values": [{"smiles": "CC(=O)Nc1ncc(CN2C[C@@H](Cc3ncc(F)cn3)[C@H](C)C2)s1", "note": "(relative stereo) [Example 2-22, N-(5-(((trans)-3-((5-fluoropyrimidin-2-yl)methyl)-4-methylpyrrolidin-1-yl)methyl)thiazol-2-yl)acetamide]", "IC50": 36}, {"smiles": "CC(=O)Nc1ncc(CN2CC[C@H](Cc3ncc(F)cn3)C2)s1", "note": "(single isomer, unassigned) [Example 2-1]", "IC50": 7}, {"smiles": "CC(=O)Nc1ncc(CN2CC[C@@H](Cc3ncc(F)cn3)C2)s1", "note": "(single isomer, unassigned) [Example 2-2]", "IC50": 114}, {"smiles": "CC(=O)Nc1ncc([C@@H](C)N2CCC[C@H](Cc3ncc(F)cn3)C2)s1", "note": "(single isomer, unassigned) [Example 2-10]", "IC50": 29}, {"smiles": "CC(=O)Nc1ncc([C@H](C)N2CCC[C@H](Cc3ncc(F)cn3)C2)s1", "note": "(single isomer, unassigned) [Example 2-11]", "IC50": 1}, {"smiles": "CC(=O)Nc1ncc(CN2C[C@H](Cc3ncc(F)cn3)C[C@@H]2C)s1", "note": "(single isomer, unassigned) [Example 2-18]", "IC50": 358}, {"smiles": "CC(=O)Nc1ncc(CN2C[C@@H](Cc3ncc(F)cn3)C[C@H]2C)s1", "note": "(single isomer, unassigned) [Example 2-19]", "IC50": 1}, {"smiles": "CC(=O)Nc1ncc(CN2C[C@H](Cc3ncc(F)cn3)C[C@H]2C)s1", "note": "(single isomer, unassigned) [Example 2-20]", "IC50": 1}, {"smiles": "CC(=O)Nc1ncc(CN2C[C@@H](Cc3ncc(F)cn3)C[C@@H]2C)s1", "note": "(single isomer, unassigned) [Example 2-21]", "IC50": 108}, {"smiles": "CC(=O)Nc1ncc(CN2C[C@@H](Cc3ncc(F)cn3)CC[C@H]2C)s1", "note": "(single isomer, unassigned) [Example 2-24]", "IC50": 1100}, {"smiles": "CC(=O)Nc1ncc(CN2C[C@H](Cc3ncc(F)cn3)CC[C@@H]2C)s1", "note": "(single isomer, unassigned) [Example 2-25]", "IC50": 5}, {"smiles": "CC(=O)Nc1ncc(CN2C[C@@H](Cc3ncc(F)cn3)CC[C@@H]2C)s1", "note": "(single isomer, unassigned) [Example 2-26]", "IC50": 990}, {"smiles": "CC(=O)Nc1ncc(CN2C[C@H](Cc3ncc(F)cn3)CC[C@H]2C)s1", "note": "(single isomer, unassigned) [Example 2-27]", "IC50": "< 1"}, {"smiles": "CC(=O)Nc1ncc(CN2CCC[C@@H]([C@@H](C)c3ncc(F)cn3)C2)s1", "note": "(single isomer, unassigned) [Example 2-29]", "IC50": 1}, {"smiles": "CC(=O)Nc1ncc(CN2CCC[C@@H]([C@H](C)c3ncc(F)cn3)C2)s1", "note": "(single isomer, unassigned) [Example 2-30]", "IC50": 32}, {"smiles": "CC(=O)Nc1ncc(CN2CCC[C@H]([C@@H](C)c3ncc(F)cn3)C2)s1", "note": "(single isomer, unassigned) [Example 2-31]", "IC50": 4}, {"smiles": "CC(=O)Nc1ncc(CN2CCC[C@H]([C@H](C)c3ncc(F)cn3)C2)s1", "note": "(single isomer, unassigned) [Example 2-32]", "IC50": 330}, {"smiles": "CC(=O)Nc1ncc(CN2CC[C@H](C)[C@@H](Cc3ncc(F)cn3)C2)s1", "note": "(single isomer, unassigned) [Example 2-37]", "IC50": 2}, {"smiles": "CC(=O)Nc1ncc(CN2CC[C@H](C)[C@@H](Cc3ncc(F)cn3)C2)s1", "note": "(single isomer, unassigned) [Example 2-38]", "IC50": 27}, {"smiles": "CC(=O)Nc1ncc(CN2CC[C@H](C)[C@H](Cc3ncc(F)cn3)C2)s1", "note": "(single isomer, unassigned) [Example 2-39]", "IC50": 1}, {"smiles": "CC(=O)Nc1ncc(CN2CC[C@@H](C)[C@@H](Cc3ncc(F)cn3)C2)s1", "note": "(single isomer, unassigned) [Example 2-40]", "IC50": 27}, {"smiles": "CC(=O)Nc1ncc(CN2C[C@H](Cc3ncc(F)cn3)C[C@@H]2C(F)(F)F)s1", "note": "(single isomer, unassigned) [Example 2-44]", "IC50": "> 20000"}, {"smiles": "CC(=O)Nc1ncc(CN2C[C@@H](Cc3ncc(F)cn3)C[C@H]2C(F)(F)F)s1", "note": "(single isomer, unassigned) [Example 2-45]", "IC50": 130}, {"smiles": "CC(=O)Nc1ncc(CN2C[C@@H](Cc3ncc(F)cn3)C[C@@H]2C(F)(F)F)s1", "note": "(single isomer, unassigned) [Example 2-46]", "IC50": 3900}, {"smiles": "CC(=O)Nc1ncc(CN2C[C@H](Cc3ncc(F)cn3)C[C@@H]2C(F)(F)F)s1", "note": "(single isomer, unassigned) [Example 2-47]", "IC50": 1200}, {"smiles": "CC(=O)Nc1nc(F)c(CN2C[C@@H](Cc3noc(C)n3)C[C@@H]2C)s1", "note": "(single isomer, unassigned) [Example 4-12 Peak 1]", "IC50": "< 1"}, {"smiles": "CC(=O)Nc1nc(F)c(CN2C[C@H](Cc3noc(C)n3)C[C@@H]2C)s1", "note": "(single isomer, unassigned) [Example 4-12 Peak 2]", "IC50": "< 1"}, {"smiles": "CC(=O)Nc1nnc(CN2CCC[C@H](Cc3ncc(F)cn3)C2)s1", "note": "(stereo in doubt) [Example 3-14, N-(5-((3-((5-fluoropyrimidin-2-yl)methyl)piperidin-1-yl)methyl)-1,3,4-thiadiazol-2-yl)acetamide]", "IC50": 12}, {"smiles": "CC(=O)Nc1ncc(CN2CCC[C@H](Cc3ccc(Cl)cc3)C2)s1", "note": "(stereo in doubt) [Example 4-25, N-(5-((3-(4-chlorobenzyl)piperidin-1-yl)methyl)thiazol-2-yl)acetamide]", "IC50": 8.9}, {"smiles": "CC(=O)Nc1ncc(CN2CC[C@H](Cc3ccc(F)c(F)c3)C2)s1", "note": "(stereo in doubt) [Example 4-26, N-(5-((3-(3,4-difluorobenzyl)pyrrolidin-1-yl)methyl)thiazol-2-yl)acetamide]", "IC50": 56}, {"smiles": "CC(=O)Nc1ncc(CN2CCCC(Cc3ccc(F)cc3)C2)s1", "note": "(stereo not drawn) [Example 1-1, N-(5-((3-(4-fluorobenzyl)piperidin-1-yl)methyl)thiazol-2-yl)acetamide]", "IC50": 60}, {"smiles": "CC(=O)Nc1ncc(CN2CCCC(Cc3ccccn3)C2)s1", "note": "(stereo not drawn) [Example 1-2, N-(5-((3-(pyridin-2-ylmethyl)piperidin-1-yl)methyl)thiazol-2-yl)acetamide]", "IC50": 4}, {"smiles": "COc1cccc(CC2CCCN(Cc3cnc(NC(C)=O)s3)C2)c1", "note": "(stereo not drawn) [Example 1-3, N-(5-((3-(3-methoxybenzyl)piperidin-1-yl)methyl)thiazol-2-yl)acetamide]", "IC50": 33}, {"smiles": "COc1ccc(CC2CCCN(Cc3cnc(NC(C)=O)s3)C2)cc1", "note": "(stereo not drawn) [Example 1-4, N-(5-((3-(4-methoxybenzyl)piperidin-1-yl)methyl)thiazol-2-yl)acetamide]", "IC50": 8}, {"smiles": "CC(=O)Nc1ncc(CN2CCCC(Cc3cccc(F)c3)C2)s1", "note": "(stereo not drawn) [Example 1-5, N-(5-((3-(3-fluorobenzyl)piperidin-1-yl)methyl)thiazol-2-yl)acetamide]", "IC50": 62}, {"smiles": "COc1cccc(CC2CCCN(Cc3cnc(NC(C)=O)s3)C2)n1", "note": "(stereo not drawn) [Example 1-6, N-(5-((3-((6-methoxypyridin-2-yl)methyl)piperidin-1-yl)methyl)thiazol-2-yl)acetamide]", "IC50": 2}, {"smiles": "COc1cc(CC2CCCN(Cc3cnc(NC(C)=O)s3)C2)ccn1", "note": "(stereo not drawn) [Example 1-7, N-(5-((3-((2-methoxypyridin-4-yl)methyl)piperidin-1-yl)methyl)thiazol-2-yl)acetamide]", "IC50": 3}, {"smiles": "COc1cncc(CC2CCCN(Cc3cnc(NC(C)=O)s3)C2)c1", "note": "(stereo not drawn) [Example 1-8, N-(5-((3-((5-methoxypyridin-3-yl)methyl)piperidin-1-yl)methyl)thiazol-2-yl)acetamide]", "IC50": 29}, {"smiles": "COc1ccnc(CC2CCCN(Cc3cnc(NC(C)=O)s3)C2)c1", "note": "(stereo not drawn) [Example 1-9, N-(5-((3-((4-methoxypyridin-2-yl)methyl)piperidin-1-yl)methyl)thiazol-2-yl)acetamide]", "IC50": 12}, {"smiles": "COc1ccc(CC2CCCN(Cc3cnc(NC(C)=O)s3)C2)nc1", "note": "(stereo not drawn) [Example 1-10, N-(5-((3-((5-methoxypyridin-2-yl)methyl)piperidin-1-yl)methyl)thiazol-2-yl)acetamide]", "IC50": 20}, {"smiles": "COc1ccc(CC2CCCN(Cc3cnc(NC(C)=O)s3)C2)cn1", "note": "(stereo not drawn) [Example 1-11, N-(5-((3-((6-methoxypyridin-3-yl)methyl)piperidin-1-yl)methyl)thiazol-2-yl)acetamide]", "IC50": 4}, {"smiles": "CC(=O)Nc1ncc(CN2CCCC(Cc3cncc(F)c3)C2)s1", "note": "(stereo not drawn) [Example 1-12, N-(5-((3-((5-fluoropyridin-3-yl)methyl)piperidin-1-yl)methyl)thiazol-2-yl)acetamide]", "IC50": 7}]}]}
